Assay results published in patent US20220202882A1, “EFFECT OF COMBINATION OF BIFIDOBACTERIUM AND BERBERINE ON PRE-DIABETES AND TYPE 2 DIABETES” (The Fourth Military Medical University, priority 2018, published 2022).
Where a name gives a salt, the structure may show the parent alone.

Experiments:
[1] = tested on: pre-diabetic and type 2 diabetes mellitus patients; test: Clinical trial: ketone level in urine; assay type: in vivo, human; settings: for Effect on urine ketone body level (in words) / Post-treatment ketone level in urine - pre-treatment ketone level in urine, mean value: 16 weeks of treatment; for Post-treatment ketone level in urine - pre-treatment ketone level in urine, mean value / Post-treatment ketone level in urine, mean value / Pre-treatment ketone level in urine, mean value: FAS; for Post-treatment ketone level in urine, mean value: after 16 weeks of treatment; for Pre-treatment ketone level in urine, mean value: baseline before treatment
Procedure: (§1) From June 2015 to October 2018, a double-blind, randomized, and parallel-controlled trial, studying the effects of the combined use of Bifidobacterium and berberine on pre-diabetic and type 2 diabetes mellitus patients, was conducted in 10 research centers in Xi'an, Yan'an and Shangluo of Shaanxi province, etc., including the First Affiliated Hospital of the Fourth Military Medical University. The trial included an enrollment stage of 2 weeks and a treatment stage of 16 weeks. After passing the first visit 1 (see V1 in Table 1), the subjects entered the enrollment stage, i.e., 2 weeks of lifestyle intervention, followed by a re-screening (see V2 in Table 1). The subjects were subjected to a 16-week course of treatment after passing the screening. See Table 1 for the detailed screening parameters. After the enrollment stage, the baseline data of the 300 successfully enrolled subjects were collected. Meanwhile, the subjects started to receive lifestyle guidance, and were randomly divided into four groups for 16 weeks of treatments. 1) Bifidobacterium group: the subjects were administered with Bifidobacterium capsules (Livzon Pharmaceutical Group Inc., batch no.: 20141013), 0.35 g/capsule, each capsule containing 50,000,000 viable bacteria (Bifidobacterium adolescentis DM8504), 2 capsules/time, 2 times/day, plus berberine placebo tablets (Northeast Pharma Group Shenyang First Pharma Co., Ltd., Lot no.: 20150101, containing 80.2% microcrystalline cellulose, 9.4% pregelatinized starch, 6.4% sodium carboxymethyl starch, 1% magnesium stearate, and 3% copovidone), 0.1 g/tablet, 5 tablets/time, 2 times/day. 2) Berberine group: the subjects were administered with berberine tablets (Northeast Pharma Group Shenyang First Pharma Co., Ltd., Lot no.: 130917, each tablet weighted 0.165 g and contained 0.1 g active berberine ingredient (berberine hydrochloride), with the same excipients as the placebo tablets), 5 tablets/time, 2 times/day, plus Bifidobacterium placebo capsules (Livzon Pharmaceutical Group Inc., Lot no.: 141001, specifically containing 0.348 g spray-dried lactose, and 0.002 g magnesium stearate), 0.35 g/capsule, 2 capsules/time, 2 times/day. 3) Combination Group: the subjects were administered with Bifidobacterium capsules, 0.35 g/capsule, each capsule containing 50,000,000 viable bacteria (B. adolescentis DM8504), 2 capsules/time, 2 times/day, plus berberine tablets, 0.1 g/tablet, each tablet containing 0.1 g active berberine ingredient (berberine hydrochloride), 5 tablets/time, 2 times/day. 4) Control group: the subjects were administered with Bifidobacteria placebo capsules, 0.35 g/capsule, 2 capsules/time, 2 times/day, plus berberine placebo tablets, 0.1 g/tablet, 5 tablets/time, 2 times/day. Bifidobacterium capsules were taken after meals and berberine tablets were taken before meals. Tests of all samples in the study were carried out in a designated laboratory with standardized criteria. Blood analysis covered hundreds of indicators including insulin, amino acids, cytokines etc. After the sample testing was finished, 1) Chi-Squared test and t-test were used to evaluate the intergroup balance of the baseline data including the demographic characteristics and pre-treatment indicators, wherein the baseline data referred to those collected at the second visit, before the formal administration, the data collected at the first visit on the enrollment stage were used instead if the data at the second visit was lacking; 2) two-way disordered CM-CH11, Kruska-Wilcox test, etc. were used for analysis and intergroup comparison of pre- and post-treatment indicators such as fasting plasma glucose (FPG), HbA1c, plasma glucose at 2 hours post OGTT (2-h PPG), blood pressure, blood lipids, body weight and BMI; 3) adverse events and hypoglycemia events were described in terms of the type, frequency and relevance with the drugs, for safety evaluation. Software SAS 9.1.3 was used for statistical analysis with all analysis processes being programmed. […]

[2] = tested on: pre-diabetic and type 2 diabetes mellitus patients; test: Clinical trial: blood lipids (total cholesterol, HDL, LDL); assay type: in vivo, human; settings: for Effect on total cholesterol level (in words) / High-density lipoprotein change, mean value / Post-treatment low-density lipoprotein - pre-treatment low-density lipoprotein, mean value / Post-treatment total cholesterol - pre-treatment total cholesterol, mean value: 16 weeks of treatment; for Effect on total cholesterol level (in words): Kruskal-Wilcox test; for Post-treatment low-density lipoprotein, mean value / Post-treatment total cholesterol, mean value: after 16 weeks of treatment; for Pre-treatment low-density lipoprotein, mean value / Pre-treatment total cholesterol, mean value: baseline before treatment
Procedure: as §1

Compound	Effect on urine ketone body level (in words) [1]	Post-treatment ketone level in urine - pre-treatment ketone level in urine, mean value [1]	Post-treatment ketone level in urine, mean value [1]	Pre-treatment ketone level in urine, mean value [1]	Effect on total cholesterol level (in words) [2]	High-density lipoprotein change, mean value ([2]; FAS) [mmol/L]	Post-treatment low-density lipoprotein - pre-treatment low-density lipoprotein, mean value ([2]; FAS) [mmol/L]	Post-treatment total cholesterol - pre-treatment total cholesterol, mean value ([2]; FAS) [mmol/L]	Post-treatment low-density lipoprotein, mean value ([2]; FAS) [mmol/L]	Post-treatment total cholesterol, mean value ([2]; FAS) [mmol/L]	Pre-treatment low-density lipoprotein, mean value ([2]; FAS) [mmol/L]	Pre-treatment total cholesterol, mean value ([2]; FAS) [mmol/L]	High-density lipoprotein change, mean value ([2]; PPS) [mmol/L]
Bifidobacterium	not observed	−0.0909	0.0341	0.1100	did not have evident total cholesterol lowing effect	0.03	-0.00247	0.0219	2.9	4.8100	2.85	4.7600	0.03
COc1ccc2cc3[n+](cc2c1OC)CCc1cc2c(cc1-3)OCO2 [Berberine, berberine hydrochloride]	not observed	0.0526	0.0513	0.0000	significantly reduce the total cholesterol level	0.00	-0.15	-0.2770	2.76	4.6400	2.99	5.0200	-0.00
